Results on seven compounds are retold here after PubChem BioAssay (NCI).

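A five-concentration, 48-hour dose response in 96-well plates underlies each endpoint, interpolated linearly between surrounding concentrations. The concentration for full growth arrest is given as TGI.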

Test systems include SW-620 colon; UACC-257 melanoma; SN12C renal; MALME-3M melanoma; HT29 colon; HS 578T breast; MOLT-4 leukemia; OVCAR-4 ovarian; SK-MEL-2 melanoma; OVCAR-8 ovarian; SNB-75 CNS; U251 CNS; IGROV1 ovarian; KM12 colon; MDA-N; HOP-62 NSCLC; A549 NSCLC; NCI/ADR-RES ovarian; RPMI-8226 leukemia; BT-549 breast.
Common to all, as to assay: NCI-60 cell line screen, 48 h

In the case of `Cc1ccc2nc3ccccc3c(C3C4C(=O)N(c5ccc(Br)cc5Cl)C(=O)C4ON3C(C(N)=O)c3ccccc3)c2c1` (stereo not given), the TGI in the assay with SW-620 colon is above 25 µM; in the assay with UACC-257 melanoma it was above 25 µM; in the assay on SN12C renal, 23.2 µM; in the assay on MALME-3M melanoma, above 25 µM; in the assay on HT29 colon it was above 25 µM; with HS 578T breast, above 25 µM. Moreover, the TGI in the assay on MOLT-4 leukemia, in the assay with OVCAR-4 ovarian, in the assay with SK-MEL-2 melanoma, in the assay with OVCAR-8 ovarian, in the assay on SNB-75 CNS and in the assay with U251 CNS was above 25 µM in each case. The TGI in the assay with IGROV1 ovarian was above 25 µM; with KM12 colon it was above 25 µM; with MDA-N, 23.6 µM; in the assay on HOP-62 NSCLC, above 25 µM; in the assay with A549 NSCLC, above 25 µM.

Turning to `S=C1Cc2c([nH]c3ccccc23)-c2ccccc2N1`, the TGI in the assay with SW-620 colon, in the assay on UACC-257 melanoma, in the assay on SN12C renal, with MALME-3M melanoma, in the assay with NCI/ADR-RES ovarian and in the assay with HT29 colon was above 100 µM in each case. The TGI was above 100 µM in the assay with RPMI-8226 leukemia; above 100 µM in the assay on HS 578T breast; above 100 µM in the assay on MOLT-4 leukemia; above 100 µM in the assay with OVCAR-4 ovarian; above 100 µM in the assay with OVCAR-8 ovarian; 66.7 µM in the assay on SNB-75 CNS. Moreover, the TGI is above 100 µM in the assay with IGROV1 ovarian; above 100 µM in the assay with KM12 colon; above 100 µM with MDA-N; 62.3 µM with HOP-62 NSCLC; above 100 µM in the assay with A549 NSCLC.

Consider `COc1ccc(-c2c(C(C)=O)c(-c3ccccc3)n(C3OC(COC(C)=O)C(OC(C)=O)C(OC(C)=O)C3OC(C)=O)c(=S)c2C#N)cc1` (stereo not given), for which the TGI in the assay on SW-620 colon, in the assay with UACC-257 melanoma, with SN12C renal, with MALME-3M melanoma, in the assay with NCI/ADR-RES ovarian and in the assay with HT29 colon was above 100 µM each time. Moreover, the TGI in the assay with MOLT-4 leukemia, with OVCAR-4 ovarian, with OVCAR-8 ovarian, with SNB-75 CNS, with U251 CNS and in the assay on IGROV1 ovarian was above 100 µM each time. Moreover, the TGI in the assay on KM12 colon, in the assay with MDA-N, with HOP-62 NSCLC and in the assay with A549 NSCLC was above 100 µM in each case.

Take `O=C1SCC(O)=C1/C=N/Nc1nc2ccccc2o1`: the TGI in the assay with SW-620 colon is above 100 µM; with UACC-257 melanoma it was 72.5 µM; in the assay with SN12C renal, 96 µM; with MALME-3M melanoma, above 100 µM; in the assay on NCI/ADR-RES ovarian, 43.3 µM; with HT29 colon, 83.7 µM. Besides, the TGI with HS 578T breast was above 100 µM; in the assay on MOLT-4 leukemia, above 100 µM; in the assay with OVCAR-4 ovarian, above 100 µM; in the assay on SK-MEL-2 melanoma, above 100 µM; with OVCAR-8 ovarian, 46.6 µM; in the assay on KM12 colon, above 100 µM. The figures for the TGI in the assay on MDA-N, in the assay on HOP-62 NSCLC and in the assay with A549 NSCLC were above 100 µM, above 100 µM and 95.4 µM, respectively.

As for `Cc1[nH]c(=O)[nH]c(=S)c1C(=O)NC(C)(CO)CO`, the TGI in the assay with SW-620 colon, in the assay on UACC-257 melanoma, with SN12C renal, with MALME-3M melanoma, with NCI/ADR-RES ovarian and with HT29 colon was above 100 µM each time. Further, the TGI with HS 578T breast, with MOLT-4 leukemia, in the assay with OVCAR-4 ovarian, in the assay on SK-MEL-2 melanoma, in the assay with OVCAR-8 ovarian and in the assay with SNB-75 CNS was above 100 µM in each case. For the same compound, the TGI with U251 CNS, with IGROV1 ovarian, in the assay on KM12 colon, in the assay on MDA-N, in the assay on HOP-62 NSCLC and in the assay on A549 NSCLC was above 100 µM throughout.

In the case of `N#CC1=C(N2CCCC2)NC(=O)CC1=O`, the TGI with SW-620 colon, in the assay on UACC-257 melanoma, in the assay on SN12C renal, in the assay with MALME-3M melanoma, in the assay on NCI/ADR-RES ovarian and with HT29 colon was above 100 µM throughout. For the same compound, the TGI in the assay on RPMI-8226 leukemia, in the assay on HS 578T breast, in the assay with MOLT-4 leukemia, with OVCAR-4 ovarian, in the assay with SK-MEL-2 melanoma and in the assay on OVCAR-8 ovarian was above 100 µM in each case. Also, the TGI in the assay on U251 CNS, in the assay with IGROV1 ovarian, in the assay with KM12 colon, with MDA-N, in the assay on HOP-62 NSCLC and in the assay with A549 NSCLC was above 100 µM throughout.

Take `CCSc1nc(N2CCOCC2)c2cn[nH]c2n1`: the TGI with SW-620 colon, in the assay on UACC-257 melanoma, in the assay on SN12C renal, in the assay on MALME-3M melanoma, in the assay on NCI/ADR-RES ovarian and in the assay with HT29 colon was above 100 µM in each case. Also, the TGI in the assay on RPMI-8226 leukemia, in the assay with HS 578T breast, in the assay with MOLT-4 leukemia, with OVCAR-4 ovarian, in the assay on SK-MEL-2 melanoma and in the assay with OVCAR-8 ovarian was above 100 µM throughout. Further, the TGI in the assay with BT-549 breast, with SNB-75 CNS, in the assay on U251 CNS, in the assay on IGROV1 ovarian, with KM12 colon and in the assay with HOP-62 NSCLC was above 100 µM each time. The TGI in the assay with A549 NSCLC was above 100 µM.
